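Briefly, cells in 96-well plates were exposed to five compound concentrations for 48 h, and endpoints were estimated by linear interpolation. At the TGI there is no net growth.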
Experiments:
Assay in all cases: inhibition of tumour cell growth, NCI panel, 48 h
SF-295 CNS = test system: SF-295 CNS
DU-145 prostate = test system: DU-145 prostate
NCI-H522 lung = test system: NCI-H522 lung
UACC-257 melanoma = test system: UACC-257 melanoma
CAKI-1 renal = test system: CAKI-1 renal
RXF 393 renal = test system: RXF 393 renal
HCT-116 colon = test system: HCT-116 colon
LOX IMVI melanoma = test system: LOX IMVI melanoma
T-47D breast = test system: T-47D breast
NCI-H460 lung = test system: NCI-H460 lung
786-0 renal = test system: 786-0 renal
EKVX NSCLC = test system: EKVX NSCLC
SK-MEL-5 melanoma = test system: SK-MEL-5 melanoma
HOP-92 NSCLC = test system: HOP-92 NSCLC
SNB-75 CNS = test system: SNB-75 CNS
HS 578T breast = test system: HS 578T breast
HL-60(TB) leukemia = test system: HL-60(TB) leukemia
HCT-15 colon = test system: HCT-15 colon
SW-620 colon = test system: SW-620 colon
U251 CNS = test system: U251 CNS
HOP-62 NSCLC = test system: HOP-62 NSCLC
CCRF-CEM leukemia = test system: CCRF-CEM leukemia
OVCAR-4 ovarian = test system: OVCAR-4 ovarian
A549 NSCLC = test system: A549 NSCLC
SNB-19 CNS = test system: SNB-19 CNS
NCI-H226 lung = test system: NCI-H226 lung
HT29 colon = test system: HT29 colon
IGROV1 ovarian = test system: IGROV1 ovarian
SR leukemia = test system: SR leukemia
NCI-H23 lung = test system: NCI-H23 lung
PC-3 prostate = test system: PC-3 prostate
OVCAR-5 ovarian = test system: OVCAR-5 ovarian
SK-MEL-2 melanoma = test system: SK-MEL-2 melanoma
MOLT-4 leukemia = test system: MOLT-4 leukemia
SF-268 CNS = test system: SF-268 CNS
COLO 205 colon = test system: COLO 205 colon
UACC-62 melanoma = test system: UACC-62 melanoma
M14 melanoma = test system: M14 melanoma
MDA-MB-231 breast = test system: MDA-MB-231 breast
TK-10 renal = test system: TK-10 renal
KM12 colon = test system: KM12 colon
HCC-2998 colon = test system: HCC-2998 colon
OVCAR-3 ovarian = test system: OVCAR-3 ovarian
SF-539 CNS = test system: SF-539 CNS
UO-31 renal = test system: UO-31 renal
SK-OV-3 ovarian = test system: SK-OV-3 ovarian
MCF7 breast = test system: MCF7 breast
ACHN renal = test system: ACHN renal
SK-MEL-28 melanoma = test system: SK-MEL-28 melanoma
MDA-N = test system: MDA-N
K-562 leukemia = test system: K-562 leukemia
RPMI-8226 leukemia = test system: RPMI-8226 leukemia
SN12C renal = test system: SN12C renal
OVCAR-8 ovarian = test system: OVCAR-8 ovarian
MDA-MB-435 = test system: MDA-MB-435
NCI/ADR-RES ovarian = test system: NCI/ADR-RES ovarian

Measured: TGI

OC(c1cc2ccccc2o1)c1cc2ccccc2s1 (stereo unspecified)
> 10 µM: all assays above

Source: PubChem BioAssay (NCI)
